# Source: publication PMC9362525 (Diabetologia, 2022)
# Read-outs that look alike come from different tables or passages of the source.
# Experiments:
# HUVECs = assay type: cell-based, human
# patients with T2D and HF = assay type: in vivo, human
# HHTg rats = assay type: in vivo, rat; conditions: 10 mg/kg/day, 8 weeks
# patients with T2D = assay type: in vivo, human
# [1] = system: patients with T2D and established CVD; assay type: in vivo, human
# [2] = system: male C57BL/6 mice on 45% HFD; conditions: mouse, in vivo
# isolated human islets = assay type: cell-based; conditions: metformin added after 0.5 day, n=7
# HHTg-OVX rats = assay type: in vivo, rat; conditions: 12.5 μg/kg b.wt./day s.c., 12 weeks
# [3] = system: patients with T2D and metabolic syndrome; set-up: species or system human; conditions: in vivo
# [4] = system: people with type 2 diabetes; assay type: in vivo, human; conditions: 15 mg, 28 weeks
# LADA individuals [5] = conditions: corresponding findings in type 1 diabetes (n=56), ref not given, cited from earlier work
# LADA individuals [6] = conditions: for GAD65 stimulation index of PBMC proliferation: LADA, median (Q1, Q3)
# [7] = system: people with type 2 diabetes; assay type: in vivo, human; conditions: 16 weeks; pioglitazone 30mg, sitagliptin 100mg, canagliflozin 100mg
# db/db mice retinas = assay type: in vivo, mouse
# [8] = set-up: species or system human; conditions: in vivo
# patients with T2DM = assay type: in vivo, human
# [9] = assay type: in vivo, mice; conditions: 40 mg/kg
# db/db mice = assay type: in vivo, mouse
# [10] = system: cultured subcutaneous adipocytes; assay type: cell-based; conditions: preliminary data
# HCAECs = assay type: cell-based, human
# [11] = system: βV59M diabetic mouse islets; assay type: cell-based; conditions: diabetic islets + 10μM, 48 hours; n=7-8
# human β-cells = assay type: cell-based
# perifused human islets = assay type: cell-based
# [12] = system: adults with type 2 diabetes; assay type: in vivo, human
# EndocBH5 = assay type: cell-based, human; conditions: 96 well plates
# [13] = system: patients with type 2 diabetes; assay type: in vivo, human; conditions: Ipr 50 mg or Met 1000 mg, 24 weeks, n=15 per group
# human islets = assay type: cell-based
# HFD-fed C57BL/6J mice = assay type: in vivo, mouse; conditions: 8 weeks
# [14] = system: participants with type 2 diabetes; assay type: in vivo, human; conditions: 32 weeks
# mice = assay type: in vivo, mouse; conditions: acute administration, n=7-8
# [15] = system: thromboxane receptor, primary human myotubes; assay type: cell-based
# [16] = system: isolated mouse skeletal muscle (EDL and soleus); assay type: cell-based; conditions: [14C]-glucose, n=7-8
# cultured human podocytes = assay type: cell-based
compound,measurement,setting,value
OC[C@H]1O[C@@H](c2ccc(Cl)c(Cc3ccc(O[C@H]4CCOC4)cc3)c2)[C@H](O)[C@@H](O)[C@@H]1O [empagliflozin],expression of inflammatory markers,HUVECs,did not significantly impact
same,reduction of KIM-1 levels compared to placebo,"patients with T2D and HF; 25 mg, week 48, EFFORT-2",38%
same,LVEDD difference from placebo,"patients with T2D and HF; week 24, EFFORT-1",-7.88
same,LVEDD difference from placebo,"patients with T2D and HF; week 48, EFFORT-1",-4.40
same,posterior wall diameter difference from placebo,"patients with T2D and HF; week 48, EFFORT-2",-2.29
same,non-fasting glucose and insulin,HHTg rats,markedly decreased
same,serum triglycerides levels,HHTg rats,reduced
same,"∆LVEF Rest, E vs I",patients with T2D; cardiac MRI,-0±2%
same,"∆LVEF Rest, treatment vs washout",patients with T2D; cardiac MRI,2 ±1%
same,"∆LVPFR Rest, E vs I",patients with T2D; cardiac MRI,-55 ± 19 mL/s
same,"∆LVPFR Rest, treatment vs washout",patients with T2D; cardiac MRI,-38 ± 19 mL/s
same,"∆LVEF Stress, E vs I",patients with T2D; chronotropic stress,1±1%
same,"∆LVEF Stress, treatment vs washout",patients with T2D; chronotropic stress,-1±2%
same,"∆LVPFR Stress, E vs I",patients with T2D; chronotropic stress,-11 ± 47 mL/s
same,"∆LVPFR Stress, treatment vs washout",patients with T2D; chronotropic stress,-4 ± 45 mL/s
same,3-OH butyrate,"patients with T2D; fasting, end of 5 weeks",0.27 ± 0.03 mM
same,FFAs,"patients with T2D; fasting, end of 5 weeks",0.60 ± 0.03 mM
same,serum insulin,"patients with T2D; fasting, end of 5 weeks",103 ± 14 pM
same,patients with improvement in KDIGO CKD risk,[1]; high baseline risk group,27.1%
same,patients with worsening KDIGO CKD risk,[1]; high risk baseline group,23.3%
same,patients with worsening KDIGO CKD risk,"[1]; low risk baseline group, 10, 25 mg pooled",26.0%
same,patients with improvement in KDIGO CKD risk,[1]; moderate baseline risk group,24.6%
same,patients with worsening KDIGO CKD risk,[1]; moderate risk baseline group,24.4%
same,patients with improvement in KDIGO CKD risk,[1]; very high baseline risk group,26.2%
CN(C)C(=N)N=C(N)N [metformin],loss of excess body weight vs untreated mice,[2],30%
same,reduction of insulin secretion vs 1 day palmitate only,isolated human islets,18%
"C[C@]12CC[C@@H]3c4ccc(O)cc4CC[C@H]3[C@@H]1CC[C@@H]2O [Estradiol, 17-β estradiol]","change in ectopic TAG deposition, kidneys",HHTg-OVX rats,-23%
same,"change in ectopic TAG deposition, liver",HHTg-OVX rats,-16%
CC(C)OC(=O)C(C)(C)Oc1ccc(C(=O)c2ccc(Cl)cc2)cc1 [fenofibrate],"HR for primary outcome, patients with retinopathy at baseline",[3],0.86
tirzepatide [TZP],"insulin sensitivity (M-value), first and second phase ISR and beta-cell glucose sensitivity during EGC and HGC",[4],more than SEMA and placebo
rhGAD65,GAD65 stimulation index of PBMC proliferation,LADA individuals [5]; 2 months,"2.77 (1.96, 6.05)"
same,GAD65 stimulation index of PBMC proliferation,LADA individuals [5]; 5 months,"3.19 (2.02, 6.19)"
same,GAD65 stimulation index of PBMC proliferation,"LADA individuals [6]; 2 months from baseline, 3 injections of 4 μg","2.16 (1.25, 3.06)"
same,GAD65 stimulation index of PBMC proliferation,LADA individuals [6]; 5 months from baseline,"2.34 (1.81, 3.58)"
same,postprandial 2 hour C-peptide,LADA individuals [6]; in vivo,"1.45 (1.25, 1.85) nmol/L"
same,serious adverse events,LADA individuals [6]; interim analysis at 5 months,no treatment-related serious adverse events
N[C@@H](CC(=O)N1CCn2c(nnc2C(F)(F)F)C1)Cc1cc(F)c(F)cc1F [sitagliptin],achieved HbA1c,[7],59.9 mmol/mol
same,diabetes-induced down-regulation of presynaptic proteins,"db/db mice retinas; eye drops 5 μL/eye, 10 mg/mL, twice per day, 2 weeks",inhibits this diabetes-induced down-regulation
same,blood glucose levels,db/db mice retinas; topical,without any effect
insulin glargine 300 U/mL [Gla-300],Rates of hypoglycaemia at <3.9 to ≥3.0 mmol/L and <3.0 mmol/L,[8],did not differ between groups
Cc1ccc(S(=O)(=O)NC(=O)NN2CC3CCCC3C2)cc1 (stereo not drawn) [gliclazide],incidence of severe hypoglycaemia,patients with T2DM; female,0.75 %/year
same,incidence of severe hypoglycaemia,patients with T2DM; male,0.41 %/year
same,insulin secretion after the OGTT,[9],increased
C[C@H]1N=C(N(C)C)N=C(N)N1 [Imeglimin],random blood glucose levels vs vehicle,"db/db mice; 150 mg/kg B.I.D. oral, age 6-10 weeks",significantly lower
same,loss of RI intensity in the pancreas (SPECT/CT),db/db mice; at 10 weeks,significantly attenuated
Fas ligand [FasL],isoproterenol-induced UCP1 protein levels,[10],decreased
CCL5,endothelial function,HCAECs,displayed endothelial dysfunction
PF-4708671 [S6Ki],glucose-stimulated increase in OCR above baseline,[11],203.94±39.24%
same,oligomycin-induced decrease in OCR,[11],240.32±9.71%
COc1ccc(C(=O)O[C@H]2CC[C@@]3(C)[C@@H]4CC[C@H]5[C@]6(O)C[C@H](O)[C@@]7(O)[C@@H](CN8C[C@@H](C)CC[C@H]8[C@@]7(C)O)[C@]6(O)C[C@@]53O[C@]24O)cc1OC [veratridine],cytokine- and ER stress-induced β-cell death,human β-cells,increased cell death
same,glucose-stimulated insulin secretion,perifused human islets,increased insulin secretion
CC[C@H](C)[C@H](NC(=O)[C@H](CC(C)C)NC(=O)[C@H](Cc1c[nH]c2ccccc12)NC(=O)[C@H](CCC(N)=O)NC(=O)[C@@H](NC(=O)[C@H](Cc1ccccc1)NC(=O)[C@H](C)NC(=O)[C@H](CCCCNC(=O)COCCOCCNC(=O)COCCOCCNC(=O)CC[C@H](NC(=O)CCCCCCCCCCCCCCCCCCC(=O)O)C(=O)O)NC(=O)[C@H](CCC(N)=O)NC(=O)[C@H](C)NC(=O)[C@@H](NC(=O)[C@H](CCCCN)NC(=O)[C@H](CC(=O)O)NC(=O)[C@H](CC(C)C)NC(=O)C(C)(C)NC(=O)[C@@H](NC(=O)[C@H](CO)NC(=O)[C@H](Cc1ccc(O)cc1)NC(=O)[C@H](CC(=O)O)NC(=O)[C@H](CO)NC(=O)[C@@H](NC(=O)[C@H](Cc1ccccc1)NC(=O)[C@@H](NC(=O)CNC(=O)[C@H](CCC(=O)O)NC(=O)C(C)(C)NC(=O)[C@@H](N)Cc1ccc(O)cc1)[C@@H](C)O)[C@@H](C)O)[C@@H](C)CC)[C@@H](C)CC)C(C)C)C(=O)N[C@@H](C)C(=O)NCC(=O)NCC(=O)N1CCC[C@H]1C(=O)N[C@@H](CO)C(=O)N[C@@H](CO)C(=O)NCC(=O)N[C@@H](C)C(=O)N1CCC[C@H]1C(=O)N1CCC[C@H]1C(=O)N1CCC[C@H]1C(=O)N[C@@H](CO)C(N)=O [tirzepatide],MD in triglycerides vs GLP-1 receptor agonists,"[12]; 5 mg once weekly, random effects",-12.51 mg/dL
same,MD in triglycerides vs GLP-1 receptor agonists,[12]; 15 mg once weekly,-24.98 mg/dL
same,increased insulin secretion over high glucose,EndocBH5,> 3 fold
"OC[C@H]1O[C@@H](c2ccc(F)c(Cc3cc4ccccc4s3)c2)[C@H](O)[C@@H](O)[C@@H]1O [Ipr, ipragliflozin]",change in visceral fat area,[13],-17.8%
"CN(C)C(=N)N=C(N)N [Met, Metformin]",caspase 3/7 activity,human islets; cytokines 48 h plus 2.4 μg/ml,1.2±0.1
same,insulin stimulation index,"human islets; cytokines (IL-1β 50 U/ml + IFN-γ 1000 U/ml) 48 h plus 2.4 μg/ml, mean±SEM",4.7±1.6
same,change in visceral fat area,[13],-4.7%
"OC[C@H]1O[C@@H](c2ccc(Cl)c(Cc3ccc(O[C@H]4CCOC4)cc3)c2)[C@H](O)[C@@H](O)[C@@H]1O [EMPA, Empagliflozin]",final body weight,"HFD-fed C57BL/6J mice; 10 mg/kg/day oral gavage, HFD",44.87 ± 1.42 g
same,FFA,HFD-fed C57BL/6J mice; 10 mg/kg/day,746.30 ± 56.59 µmol/L
same,UACR,HFD-fed C57BL/6J mice; 10 mg/kg/day,21.01 ± 1.99 µg/µmol
same,fat mass,HFD-fed C57BL/6J mice; 10 mg/kg/day,11.75 ± 0.78 g
same,fat/weight,HFD-fed C57BL/6J mice; 10 mg/kg/day,26.08 ± 1.09%
same,triglyceride,HFD-fed C57BL/6J mice; 10 mg/kg/day,29.31 ± 2.71 mg/dL
same,OR (95% CI) for improved risk vs placebo,[1]; all baseline groups,"1.56 (1.30, 1.86)"
same,OR (95% CI) for worsening risk vs placebo,[1]; all baseline groups,"0.70 (0.62, 0.78)"
same,change in GFR from baseline and compared to placebo,[14],-18 mL/min
NC(=O)N1c2ccccc2C=Cc2ccccc21 [carbamazepine],cytokine- and ER stress-induced β-cell death,human β-cells,protected
same,glucose-stimulated insulin secretion,perifused human islets,moderately reduced
I-BOP,change in glucose tolerance AUC,mice,-34%
same,increase in glucose incorporation into glycogen,[15]; n=4,+398%
same,increase in glucose oxidation,[15]; n=5,+28%
same,increase in glucose uptake,[15]; n=5,+53%
same,increase in ex-vivo skeletal muscle glucose oxidation,[16],+118%
TGF-β,suppression of Tcf21 expression,cultured human podocytes,58%
